Test results reported in patent publication US4372890A, “Platinum compound” (Kureha Kagaku Kogyo Kabushiki Kaisha, priority 1980, dated 1983).

How the values were obtained:
[1] = Solubility of the products of the Examples in water and organic solvents; type: physicochemical
mouse P-388 leukemia = experiment: Antitumor effect to mouse P-388 leukemia (ILS); type: in vivo; conditions: 5 mg/kg, intraperitoneal, once a day for 5 days, P-388 in CDF1 mice
Description: Antitumor effects of the products to mouse P-388 leukemia were tested.
(§1) P-388 ascites cells obtained by a successive cultivation in DBA/2 mice were transplanted by the route of intraperitoneal injection into CDF1 mice (10 mice in one group) at a rate of 1×10^6 /mouse. From 24 hours after the transplantation, a solution of each compound in physiological saline solution was injected once a day for 5 days as 5 times by the route of intraperitoneal injection. Each average survival days (T) of the administered group and each average survival days (C) of control group were measured to calculate each percentage increase in life span (ILS(%))

[2] = Weight decrease and kidney cell damage in the mice of the P-388 test; type: in vivo, CDF1 mice; conditions: 5 mg/kg intraperitoneal for 5 days
Description: as §1

| Structure (SMILES) | solubility in benzene and chloroform ([1]; benzene and chloroform) | solubility in ethanol ([1]; ethanol) | solubility in methanol ([1]; methanol) | solubility in water ([1]; water) | ILS (percentage increase in life span, T/C×100) (mouse P-388 leukemia) [%] | kidney cell damage [2] | weight decrease [2] |
| --- | --- | --- | --- | --- | --- | --- | --- |
| COC(=O)C(N)C(N)C(=O)OC (stereo not shown) [Example 1] | insoluble | soluble | soluble | soluble |  |  |  |
| N.N.[Cl][Pt][Cl] [Compound No. 5, cis-[diaminedichloroplatinum (II)]] |  |  |  |  | 180 | kidney cell damage were observed for all of 10 mice | remarkable weight decrease |
